Consider 4 compounds from patent US5750552A, “Imidazoline derivative, possible tautomer thereof, and vulnerary including such derivative or tautomer” (Arax Co., Ltd., priority 1995, dated 1998).

The subject of series [1] is indomethacin-induced gastric ulcer. In words: Inhibitory effect on indomethacin-induced gastric ulcer. The following applies: 30 mg/kg oral, 30 min before indomethacin. It is filed as in vivo, SD rats. As for the experimental part: Inhibitory effect on indomethacin-induced gastric ulcer
Male SD rats of 7-week age were fasted for 24 hours, with a fast of water beginning in early morning of the day when the experiments were performed. The rats were classified into groups each consisting of eight rats, such that all the groups have substantially the same average weight. Before giving indomethacine to the rats, the compounds of the Examples indicated in TABLE 5 were orally administered as specimen drugs to the rats, with a dose of 30 mg/kg. Thirty minutes later, indomethacin was orally administered to each specimen rat, with a dose of 25 mg/kg (1 mL/rat). Seven hours later, the specimen rats were sacrificed by ether, and the gastric mucosa of each rat was semi-fixed with 2% formalin. The longitudinal length of the damaged area of gastric mucosa was measured, and the anti-ulcer percent values of the individual specimen drugs were calculated on the basis of the sum of the measured length values of each group of specimen rats, in the same manner as in EXAMPLE 19.

Series [2] concerns ddY mice. In words: Single-dose toxicity study. Format: in vivo. The following applies: oral, male ddY mice, two weeks.
The nature of series [3]: Single-dose toxicity study. It is filed as in vivo. The note with it: mouse, in vivo, oral, male ddY mice, two weeks.
Series [4] concerns acetic acid-induced gastric ulcer. In words: Healing effect on acetic acid-induced gastric ulcer of rat. It is filed as in vivo, Donryu rat. The following applies: 25 mg/kg oral two times a day, 10 days. As for the experimental part: Healing effect on acetic acid-induced gastric ulcer of rat
A male Donryu rat of 7-week age was subjected to abdominal incision to expose the stomach, with pentobarbital used as an anesthesia. Using a metal ring having an inside diameter of 10 mm, 200 μL of glacial acetic acid was applied, for 60 seconds, with a serosa-side of a boundary area between the antrum and the corps. The abdomen of the specimen rat subjected to the glacial acetic acid was closed by an operation, and the rat was then fed in a normal way. The compound prepared in Example 2, that is, 2-(2-dimethylaminobenzylsulfinyl)-5,5-dimethylimidazoline-4-thione was used as the specimen drug. This compound was orally administered to the specimen rat two times a day (at 9:00 a.m. and 5:00 p.m.), each time with a dose of 25 mg/kg, beginning on the day following the day on which the glacial acetic acid was applied to the rat. The oral administration continued for 10 consecutive days, with a total of 20 administrations. On the day following the last day of the administration, the specimen rat was sacrificed by ether, and the ulcer portion of the rat was semi-fixed with formalin. The surface area of the ulcer portion was measured. The healing percent (%) calculated on the basis of the measured surface area was 40.8%.

Series [5] concerns wound in rat. In words: Healing effect on wound in rat. Format: in vivo, SD rats. The note with it: TABLE 7, 15 days; for Healing days: control 15.1 ± 0.22; for Healing Index: control 188.3 ± 18.2. As for the experimental part: Healing Effect on wound in rat
Male 7-week SD rats were classified into groups each consisting of 6-7 rats, such that all the groups have substantially the same average weight. The experiment was performed on the rats according to a method of Tsurumi et al. (Oyo Yakuri, Vol. 7, pp833, 1973). Initially, the rats were subjected to an anesthesia with pentobarbital. The hair of the back of each rat was clipped, and the skin was disinfected with 70% ethanol. Then, the skin was lightly pulled and punched off in a direction from the right to the left by means of a punch whose diameter is 10 mm, so as to form two open wounds on portions of the back of the rat which are symmetrical to each other with respect to the center line of the back. The compounds of Examples indicated in the following TABLES 7 and 8 were used as specimen drugs, and orally administered once a day to each of the rats with doses indicated in the TABLES 7 and 8. The oral administration continued for 15 consecutive days, beginning from the first day when the wounds were formed on the back of each rat.
To clarify the healing effect on the wounds, an Healing Index and healing days were obtained in the following manner. Initially, the lengths of a major axis and a minor axis of each wound formed on the back were measured using calipers. On the basis of the measured length values, the area of each wound was calculated as the area of an ellipse. The Healing Index was obtained according to a method of Nakano et al. (Oyo Yakuri, Vol. 47, pp29, 1994). Described more specifically, a ratio of area of each wound was chronologically represented in a graph, and an area of the lower part of a curve in the graph during a period from the fifth day to the fifteenth day after the wounds were formed was obtained as the Healing Index. […] The healing days were obtained as the number of the days that were required for the wounds to be completely covered with regenerated epidermises. As for the wound that was healed in more than 15 days, the healing days were obtained as 16 days.

Series [6] relates to hydrochloric acid-ethanol-induced gastric ulcer. In words: Inhibitory effect on hydrochloric acid-ethanol-induced gastric ulcer. Format: in vivo, SD rats. The following applies: 30 mg/kg oral, 30 min before hydrochloric acid-ethanol. The protocol: Inhibitory effect on hydrochloric acid-ethanol-induced gastric ulcer
Male SD rats of 7-week age were fasted for 24 hours, with a fast of water beginning in early morning of the day when the experiments were performed. The rats were classified into groups each consisting of five rats, such that all the groups have substantially the same average weight. Before giving hydrochloric acid-ethanol to the rats, the compounds of the Examples indicated in TABLE 4 were orally administered as specimen drugs to the rats, with a dose of 30 mg/kg. Thirty minutes later, 1 mL of 98% ethanol containing 200 mM of hydrochloric acid was orally administered to each specimen rat. One hour later, the specimen rats were sacrificed by ether, and the gastric mucosa of each rat was semi-fixed with 2% formalin. The longitudinal length of the damaged area of the gastric mucosa was measured, and the anti-ulcer percent values of the individual specimen drugs were calculated on the basis of the sum of the measured length values of each group of the specimen rats, in the same manner as in Example 19.

Series [7] concerns gastric acid secretion in a pylorus ligated rat. In words: Inhibitory effect on the gastric acid secretion in a pylorus ligated rat. It is filed as in vivo, SD rats. The following applies: 10 mg/kg intraduodenal; 4 hours. The protocol: Inhibitory effect on the gastric acid secretion in a pylorus ligated rat Male 7-week SD rats were fasted for 24 hours, with a fast of water beginning in early morning of the day when the experiments were performed. The rats were classified into groups each consisting of five rats, such that all the groups have substantially the same average weight. The experiments were performed according to a method of Shay et. al. (Shay, H. et. al., Gastroenterology, Vol. 5, pp43, 1945). Described more specifically, each of the rats was subjected to a light anesthesia by ether, and the hair of the abdomen of each rat was clipped. Then, the abdomen was incised over a length of 1.5 cm along the center line downwards from a portion 1 cm below the xiphoid of the rat, and the stomach was taken out of the body. A portion connecting the pylorus and the duodenum was ligated by suturing thread. […] After the administration, the skin of the abdominal muscle and abdomen was sutured. The rats were kept in cages and fasted for 4 hours with a fast of water. Then, the rats were sacrificed by ether, and the stomach of each rat was removed. The gastric content was obtained from a small hole formed through the stomach of each rat and was collected in a test tube. […] An amount of supernatant was measured as a volume of gastric acid, and a total acidity of the gastric acid was also measured. A volume of gastric acid inhibitory percent (%) and a total acidity inhibitory percent (%) were calculated in the same manner as the ulcer inhibitory percent was calculated. The total acidity was obtained as a product of the amount of gastric acid secreted for 4 hours and the acidity per 1 mL of the gastric acid which was subjected to neutralization titration by an aqueous solution of 0.01N sodium hydroxide.

Series [8] deals with water-immersion restraint stress-induced gastric ulcer. In words: Inhibitory effect on water-immersion restraint stress-induced gastric ulcer. The note with it: 10 mg/kg oral, 30 min before stress. Format: in vivo, SD rats. As for the experimental part:
Inhibitory effect on water-immersion restraint stress-induced gastric ulcer
Male 7-week SD rats were fasted for 24 hours, with a fast of water beginning in early morning of the day when the experiments were performed. The rats were classified into groups each consisting of five rats, such that all the groups have substantially the same average weight. Thirty minutes before giving a stress to the rats, the compounds of the Examples indicated in TABLE 3 were orally administered as specimen drugs to the rats, with a dose of 10 mg/kg. The rats were then kept in stress cages, and were given a stress by immersing the cages in a water bath kept at a substantially constant temperature of 23°±1° C., such that the water level was at the height of the xiphoid of the rats. Seven hours later, the specimen rats were sacrificed by ether, and the gastric mucosa of each rat was semi-fixed with 2% formaline. The longitudinal length of the damaged area of the gastric mucosa was measured. A sum of the measured length values of the rats of each group was calculated as an ulcer index. An anti-ulcer or ulcer inhibitory percent (%) was calculated as {1-(ulcer index of each group of specimen rats)/(ulcer index of non-specimen group)}×100.

Broadly, the LD50 is the dose expected to kill half of the subjects tested. High values mean lower toxicity, low ones greater toxicity. For `CN(C)c1ccccc1C[S+]([O-])C1=NC(C)(C)C(=S)N1` (stereo not drawn) [Example 2, 2-(2-dimethylaminobenzylsulfinyl)-5,5-dimethylimidazolin-4-thione], in series [1], the “Inhibitory Percent (ulcer)” value came out at 100%. Besides, the “LD50 95% confidence limits” value in series [2] lay within 791 to 1138 mg/kg. For the same compound, the LD50 at 336 h in series [3] turned out to be 952 mg/kg. Also, in series [4], the “healing percent (ulcer surface area)” value is listed as 40.8%. Besides, the figures for the Healing days in series [5] (50 mg/kg oral once a day) and in series [5] (100 mg/kg oral once a day) were 13.8 ± 0.39 days and 14.6 ± 0.44 days, respectively. For the same compound, the “Healing Index” value in series [5] (50 mg/kg oral once a day) came out at 153.0 ± 13.2; in series [5] (100 mg/kg oral once a day) it was 146.7 ± 12.4.

`CC1(C)N=C([S+]([O-])Cc2cccc3cccnc23)NC1=S` (stereo not drawn) [Example 4, 2-(8-quinolinylmethylsulfinyl)-5,5-dimethylimidazolin-4-thione]: the “Inhibitory Percent (ulcer)” value in series [6] is given as 90.3%.

Turning to `CCN(C)c1ccccc1C[S+]([O-])C1=NC(C)(C)C(=S)N1` (stereo not drawn) [Example 15, 2-(2-N-ethyl-N-methylaminobenzylsulfinyl)-5,5-dimethylimidazolin-4-thione], the “Inhibitory Percent (ulcer)” value in series [1] is on record as 99.2%; in series [6] it was 97.4%; in series [8], 99.9%. Further, the “Total acidity Inhibitory percent” value in series [7] is 91.3%. The “Volume of Gastric acid Inhibitory percent” value in series [7] worked out at 60.1%.

In the case of `CCC1(C)N=C([S+]([O-])Cc2ccccc2N(C)C)NC1=S` (stereo not drawn) [Example 16, 2-(2-dimethylaminobenzylsulfinyl)-5-ethyl-5-methylimidazolin-4-thione], the “Inhibitory Percent (ulcer)” value in series [1] was found to be 97.2%. Besides, in series [7], the “Total acidity Inhibitory percent” value is reported as 77.4% and the “Volume of Gastric acid Inhibitory percent” value came to 41.6%. In addition, the “Inhibitory Percent (ulcer)” value in series [6] stood at 98.6%.
